Results on four molecules are retold here after US4560695A, “Isoxazolyl and isothiazolyl aromatase inhibitors” (Eli Lilly and Company, priority 1984, dated 1985).

Structures are written as SMILES. pEC50: −log10 of the molar value.

In assay [1] the test system is estrogen synthesis. Description: Estrogen synthesis inhibition in rats (uterine weight and ovarian steroid concentrations). Type of assay: in vivo, Wistar rats. Particulars: seven days. How it is done: By virtue of their ability to inhibit the enzyme aromatase, the compounds of this invention are able to inhibit the synthesis of estrogens in mammals, thereby making the compounds useful in the treatment of estrogen-dependent diseases, such as breast cancer.
Immature female Wistar rats (44-55 grams) were divided into control and test groups of 5-8 animals each. Test compounds were administered for seven days as a component of the diet. Control animals received diet without the test compound. Beginning on the fourth day of the test, all animals treated with the test compound and one half of the control animals were given a subcutaneous injection of 1.0 mg of testosterone propionate in corn oil. The remaining control animals received only an equivalent volume of corn oil. On the seventh day of the test, rats treated with testosterone propionate were injected subcutaneously with 100 μCi of [^3 H]-testosterone in 50 μl of 3:1 (v/v) saline-ethanol.
After two hours, the animals were killed by decapitation. Uteri were isolated, trimmed of extraneous connective tissue, and weighed. […] In the control animals treated with testosterone propionate, estrogens produced by aromatization stimulated the uterus resulting in an increase in weight. […] Ovaries from rats treated with [^3 H]-testosterone were excised, cleaned of extraneous tissue, and homogenized in 2.5 ml of a 1.0 mM potassium phosphate buffer containing 3.0 mM MgCl2.6H2 O, 320 mM sucrose, and 0.25% Triton X-100 (polyethylene glycol p-isooctyl phenyl ether, Rohm and Haas) at pH 6.5. The ovarian steroids were extracted with 1.5 ml of 9:1 (v/v) toluene/ethanol to which had been added 25 to 100 mcg each of unlabelled estradiol, estriol, and estrone, and approximately 1000 dpm of [^14 C]-estradiol. The samples were vortexed, centrifuged at 500×g for 10 minutes, and the organic phase was transferred to a conical vial. Two additional extractions were performed on the residue in the same way. The pooled organic extracts were evaporated for subsequent thin-layer chromatography.
Ovarian proteins were precipitated by the addition of 5.0 ml of ethanol to the remaining aqueous phase. […] Protein was determined according to the method of Bradford, Analytical Biochemistry, 72, 248 (1976). […]
The visible spots were marked and the plates were sprayed with primulin (0.001% in 4:1 v/v acetone/water) according to the method of Wright, J. Chromatography, 59, 220 (1971) which allowed for the identification of additional steroids under 365 nm UV light. […] The organic solvent was evaporated and 10.0 ml of scintillation fluid (Beckman Ready Solv-NA) was added to the vials. Samples were analyzed by liquid scintillation spectrometry. […] Steroid concentrations are expressed as femtomoles per milligram protein.

Assay [2] addresses T1, aromatase (Rattus norvegicus, UniProt P22443).
T1 construct: ovarian microsomes are obtained from rats treated with pregnant mares serum gonadotropin; from tissue; host or cells: ovarian microsomes from rats treated with pregnant mares serum gonadotropin
T1 sequence (P22443 1-508): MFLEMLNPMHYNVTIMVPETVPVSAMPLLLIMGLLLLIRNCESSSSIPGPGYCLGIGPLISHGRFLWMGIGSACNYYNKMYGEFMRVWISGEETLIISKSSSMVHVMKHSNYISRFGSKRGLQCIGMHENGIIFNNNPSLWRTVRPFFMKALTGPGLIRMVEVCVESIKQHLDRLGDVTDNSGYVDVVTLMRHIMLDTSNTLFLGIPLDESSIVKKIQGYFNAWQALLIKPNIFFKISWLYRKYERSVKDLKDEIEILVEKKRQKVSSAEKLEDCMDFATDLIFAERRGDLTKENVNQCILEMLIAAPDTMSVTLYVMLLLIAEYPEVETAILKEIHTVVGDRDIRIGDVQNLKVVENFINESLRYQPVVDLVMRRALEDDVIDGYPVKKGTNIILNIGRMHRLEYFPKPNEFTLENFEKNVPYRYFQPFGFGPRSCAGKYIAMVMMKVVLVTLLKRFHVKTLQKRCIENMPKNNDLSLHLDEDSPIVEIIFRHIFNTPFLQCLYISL
In words: Aromatase inhibition in the rat ovarian microsome assay. Type of assay: biochemical. Conditions: substrate (androstenedione) concentration 0.1 μM; rat ovarian microsomes. How it is done: In this test system, ovarian microsomes are obtained from rats treated with pregnant mares serum gonadotropin. Test compounds are added to reaction vials containing 0.1 μM 4-androstene-3,17-dione, 100,000 dpm 1,2[^3 H]-androstenedione, the microsomes and a NADPH generating system. The concentrations of the inhibitors tested ranged between 0.005 and 10 μM.

For assay [3], the system named is breast cancer. Particulars: Cancer Research, Vol. 42, Suppl. 8:3261s (1982); cited from earlier work.

With `OC(c1ccc(Cl)cc1)(c1ccc(Cl)cc1)c1ccns1` [Example 1, α,α-Bis(4-chlorophenyl)-5-isothiazolemethanol], in assay [1] (200 ppm in feed (approximately 20 mg/kg/day), testosterone propionate-treated immature female Wistar rats, 5 animals, ^+ p < 0.05 vs testosterone-treated control (203.4)), the “Mean Uterine Weight” value came out at 110.8 mg. In addition, the “Mean Steroid Concentration, estriol” value in assay [1] (ovaries, 200 ppm in feed, [3H]-testosterone, ^+ p < 0.05 vs testosterone-treated control (0.25)) is on record as 0.88 femtomoles per milligram of protein. Further, the “Mean Steroid Concentration, estrone” value in assay [1] (ovaries, 200 ppm in feed, [3H]-testosterone, testosterone-treated control 0.19) is given as 0.44 femtomoles per milligram of protein. The “Mean Steroid Concentration, estradiol” value in assay [1] (ovaries, 200 ppm in feed, [3H]-testosterone, testosterone-treated control 1.70) is reported as 1.18 femtomoles per milligram of protein.

The pEC50 is the EC50 on a negative log10 scale, so that one unit is a factor of ten. The low end stands for a high EC50, the high end for a low EC50. With `OC(c1ccccc1)(c1ccccc1)c1ccns1` [Example 2, α,α-Diphenyl-5-isothiazolemethanol], the pEC50 in assay [2] is 5.35.

As for `CCC1(c2ccc(N)cc2)CCC(=O)NC1=O` (stereo not shown) [aminoglutethimide], the “Effect in treatment of breast cancer” value in assay [3] is on record as “beneficial effect”.

With `C[C@]12C=CC(=O)C=C1CC[C@@H]1[C@@H]2CC[C@]2(C)OC(=O)CC[C@@H]12` [testolactone], the “Effect in treatment of breast cancer” value in assay [3] is “beneficial effect”.
